Experimental findings from article PMC12951562, “SH2scan: Mapping SH2 Domain-Ligand Binding Selectivity for Inhibitors and Degraders” (Journal of Medicinal Chemistry, 2026) are described below.

Like-named read-outs stand apart in the source and are kept apart here. Non-standard residues stand in square brackets, D forms with d. Residues, ends and D or L forms follow the SMILES beside them. *: point of attachment. pY = N[C@@H](Cc1ccc(OP(=O)(O)O)cc1)C(=O)O; Caffeoyl = O=C(/C=C/c1ccc(O)c(O)c1)*

Holding throughout (experiment): biochemical
Format in all cases: binding

One assay deals with T1, TNS2 (Homo sapiens, UniProt Q63HR2).
T1 construct: made in house; host or cells: HEK293 (transient transfection), unpurified extract
T1 sequence (Q63HR2 1-1409): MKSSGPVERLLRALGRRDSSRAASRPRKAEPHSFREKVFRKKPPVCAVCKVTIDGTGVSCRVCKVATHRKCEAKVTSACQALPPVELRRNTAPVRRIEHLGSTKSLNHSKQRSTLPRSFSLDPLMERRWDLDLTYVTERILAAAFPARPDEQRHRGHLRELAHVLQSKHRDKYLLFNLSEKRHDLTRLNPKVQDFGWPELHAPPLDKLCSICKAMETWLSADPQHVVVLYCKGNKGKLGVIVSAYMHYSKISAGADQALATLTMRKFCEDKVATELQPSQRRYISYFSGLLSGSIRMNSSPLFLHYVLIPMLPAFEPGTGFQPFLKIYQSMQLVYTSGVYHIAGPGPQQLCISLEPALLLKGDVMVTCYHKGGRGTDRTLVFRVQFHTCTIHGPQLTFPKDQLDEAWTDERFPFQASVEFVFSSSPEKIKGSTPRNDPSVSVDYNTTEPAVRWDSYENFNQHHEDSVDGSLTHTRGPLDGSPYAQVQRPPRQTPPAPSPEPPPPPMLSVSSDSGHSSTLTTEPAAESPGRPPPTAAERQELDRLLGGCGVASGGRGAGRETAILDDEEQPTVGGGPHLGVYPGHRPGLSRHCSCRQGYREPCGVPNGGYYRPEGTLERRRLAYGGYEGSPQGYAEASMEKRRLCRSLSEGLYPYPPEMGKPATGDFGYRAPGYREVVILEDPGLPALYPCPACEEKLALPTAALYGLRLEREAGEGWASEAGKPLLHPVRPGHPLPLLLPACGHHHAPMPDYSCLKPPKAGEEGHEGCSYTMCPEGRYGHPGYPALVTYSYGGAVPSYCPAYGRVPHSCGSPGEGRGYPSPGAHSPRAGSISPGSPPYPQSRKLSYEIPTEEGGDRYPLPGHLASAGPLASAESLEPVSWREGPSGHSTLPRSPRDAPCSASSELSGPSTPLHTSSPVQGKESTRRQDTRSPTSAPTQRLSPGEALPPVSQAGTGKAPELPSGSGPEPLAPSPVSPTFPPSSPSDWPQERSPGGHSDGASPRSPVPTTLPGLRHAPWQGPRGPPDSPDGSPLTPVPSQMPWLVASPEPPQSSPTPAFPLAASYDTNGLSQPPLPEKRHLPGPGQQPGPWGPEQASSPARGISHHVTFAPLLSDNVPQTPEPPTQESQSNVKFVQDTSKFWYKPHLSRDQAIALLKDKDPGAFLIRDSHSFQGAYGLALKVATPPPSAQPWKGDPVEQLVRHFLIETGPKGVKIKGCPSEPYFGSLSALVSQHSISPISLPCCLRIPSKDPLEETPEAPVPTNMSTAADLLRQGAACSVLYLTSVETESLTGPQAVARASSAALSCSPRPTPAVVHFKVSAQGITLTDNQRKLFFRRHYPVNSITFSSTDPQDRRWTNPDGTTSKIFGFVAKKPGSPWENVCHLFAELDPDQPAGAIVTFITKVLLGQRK
The settings on record: for remaining activity at 10 µM: read-out: percent of DMSO vehicle control.

Another assay has as its target T2, STAP2 (Homo sapiens, UniProt Q9UGK3).
T2 construct: made in house; host or cells: HEK293 (transient transfection), unpurified extract
T2 sequence (Q9UGK3 1-403): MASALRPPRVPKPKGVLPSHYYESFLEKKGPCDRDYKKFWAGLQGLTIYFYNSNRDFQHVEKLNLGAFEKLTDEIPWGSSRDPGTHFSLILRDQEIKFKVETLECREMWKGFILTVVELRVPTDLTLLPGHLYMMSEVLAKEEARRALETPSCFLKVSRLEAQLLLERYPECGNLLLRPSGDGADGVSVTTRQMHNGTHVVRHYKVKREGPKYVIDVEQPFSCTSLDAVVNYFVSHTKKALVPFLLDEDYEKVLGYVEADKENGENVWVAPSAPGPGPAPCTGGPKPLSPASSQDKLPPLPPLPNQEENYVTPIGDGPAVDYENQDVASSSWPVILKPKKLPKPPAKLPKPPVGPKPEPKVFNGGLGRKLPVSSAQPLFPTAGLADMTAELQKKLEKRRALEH
The settings on record: for percent of DMSO vehicle control at 10 µM / remaining activity at 10 µM: read-out: percent of DMSO vehicle control.

The target in another assay is T3, SHC4 (Homo sapiens, UniProt Q6S5L8).
T3 construct: made in house; host or cells: HEK293 (transient transfection), unpurified extract
T3 sequence (Q6S5L8 1-630): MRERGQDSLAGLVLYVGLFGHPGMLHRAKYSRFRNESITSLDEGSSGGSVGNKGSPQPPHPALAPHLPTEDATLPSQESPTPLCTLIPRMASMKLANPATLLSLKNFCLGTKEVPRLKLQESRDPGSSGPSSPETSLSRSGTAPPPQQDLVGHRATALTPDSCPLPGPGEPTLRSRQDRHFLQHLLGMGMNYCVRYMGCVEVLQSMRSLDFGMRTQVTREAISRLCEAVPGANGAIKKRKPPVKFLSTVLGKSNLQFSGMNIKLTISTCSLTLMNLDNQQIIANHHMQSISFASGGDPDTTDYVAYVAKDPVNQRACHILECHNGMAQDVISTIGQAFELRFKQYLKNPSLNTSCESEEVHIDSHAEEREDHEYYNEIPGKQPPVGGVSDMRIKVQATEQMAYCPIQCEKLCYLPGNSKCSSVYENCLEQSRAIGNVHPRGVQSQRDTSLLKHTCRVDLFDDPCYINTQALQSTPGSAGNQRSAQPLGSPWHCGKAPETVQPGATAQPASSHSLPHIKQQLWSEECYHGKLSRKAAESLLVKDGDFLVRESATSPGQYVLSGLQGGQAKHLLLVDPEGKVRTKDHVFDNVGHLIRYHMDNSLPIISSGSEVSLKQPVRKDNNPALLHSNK
The settings on record: for remaining activity at 10 µM: read-out: percent of DMSO vehicle control.

In a further assay the target is T4, STAP1 (Homo sapiens, UniProt Q9ULZ2).
T4 construct: made in house; host or cells: HEK293 (transient transfection), unpurified extract
T4 sequence (Q9ULZ2 1-295): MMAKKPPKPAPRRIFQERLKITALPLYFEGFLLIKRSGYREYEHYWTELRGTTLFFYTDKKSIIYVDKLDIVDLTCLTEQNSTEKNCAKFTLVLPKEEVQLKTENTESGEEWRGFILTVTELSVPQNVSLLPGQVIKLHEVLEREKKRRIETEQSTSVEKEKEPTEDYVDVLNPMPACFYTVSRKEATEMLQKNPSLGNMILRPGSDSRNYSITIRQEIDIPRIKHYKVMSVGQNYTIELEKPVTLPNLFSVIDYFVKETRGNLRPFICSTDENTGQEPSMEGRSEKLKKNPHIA
The settings on record: for remaining activity at 10 µM: read-out: percent of DMSO vehicle control.

The target in a further assay is T5, GRB2 (Homo sapiens, UniProt P62993).
T5 construct: the DNA-tagged SH2 domain concentrations used in this study were <0.1 nM; made in house; host or cells: HEK293 (transient transfection; unpurified extract)
The settings on record: for percent of DMSO vehicle control: primary screen, 10 μM.

T5 sequence (P62993 60-152 limits assumed): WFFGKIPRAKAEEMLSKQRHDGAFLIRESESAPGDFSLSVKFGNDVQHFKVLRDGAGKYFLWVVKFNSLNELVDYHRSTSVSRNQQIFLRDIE

The term Kd denotes the free concentration of one partner at which half of the binding sites on the other are occupied at equilibrium, for simple one-to-one binding. With `CC[C@H](C)[C@H](NC(=O)[C@H](CO)NC(=O)[C@H](CC(C)C)NC(=O)[C@H](CCCNC(=N)N)NC(=O)[C@H](CO)NC(=O)[C@H](CS)NC(C)=O)C(=O)N[C@@H](Cc1ccc(OP(=O)(O)O)cc1)C(=O)N[C@@H](CC(=O)O)C(=O)N[C@@H](CC(N)=O)C(=O)N[C@H](C(=O)N1CCC[C@H]1C(=O)NCC(N)=O)C(C)C` [Ac-CSRLSIpYDNVPG-NH2] (Ac-CSRLSI[pY]DNVPG-NH2), on TNS2, the Kd stood at 466 ± 450 nM.
For the molecule `CC[C@H](C)[C@H](NC(=O)[C@H](CCC(=O)O)NC(=O)[C@H](CCC(=O)O)NC(=O)[C@H](Cc1ccc(OP(=O)(O)O)cc1)NC(C)=O)C(=O)N[C@@H](CCC(=O)O)C(N)=O` [Ac-pYEEIE-NH2] (Ac-[pY]EEIE-NH2), the “percent of DMSO vehicle control” value is given as 80.1±5.7% on STAP2 (primary screen, 10 μM); 119.5% on SHC4 (primary screen, 10 μM); 101.0% on STAP1 (primary screen, 10 μM); 104.0% at TNS2 (primary screen, 10 μM); 77.1% at GRB2.
In the case of `CC(=O)N[C@@H](Cc1ccc(CP(=O)(O)O)cc1)C(=O)NC1(C(=O)N[C@@H](CC(N)=O)C(=O)NCCCc2c(O)ccc3ccccc23)CCCCC1` [CGP78850], on STAP2, the percent of DMSO vehicle control at 10 µM was found to be 86 ± 7.4%. Further, the remaining activity at 10 µM at SHC4 is 108 ± 7.4%; on STAP1, 113 ± 2.6%; at TNS2 it was 16%. For the same molecule, the Kd worked out at 1200 nM at TNS2 and 0.0034 µM at GRB2. Moreover, the “percent of DMSO vehicle control” value on GRB2 turned out to be 0.0±0.0%.
`CC[C@H](C)[C@H](NC(=O)[C@H](CCC(=O)O)NC(=O)[C@H](CCC(=O)O)NC(=O)[C@H](Cc1ccc(OP(=O)(O)O)cc1)NC(=O)/C=C/c1ccc(O)c(O)c1)C(=O)N[C@@H](CCC(=O)O)C(=O)O` [Caffeic acid-pYEEIE] (Caffeoyl-[pY]EEIE-OH): the figures for the Kd on STAP2, on SHC4 and at TNS2 were 23.2 µM, 39 ± 6.1 nM and 4300 ± 2500 nM, respectively. Besides, at STAP2, the percent of DMSO vehicle control at 10 µM turned out to be 58.7 ± 7.4%. For the same molecule, the remaining activity at 10 µM is 0% at SHC4, 77.9 ± 1% at STAP1 and 4.8 ± 1.3% on TNS2. Moreover, at GRB2, the “percent of DMSO vehicle control” value is recorded as 73.4±9.2%.
As to `O=C(CCl)Nc1cccc(CNC(=O)[C@H](Cc2ccc(OP(=O)(O)O)cc2)NC(=O)Cc2ccc(F)cc2)c1` [MN551], the remaining activity at 10 µM was 143% on STAP2 (primary screen, 10 μM); 93 ± 4.4% at SHC4 (primary screen, 10 μM); 84.3 ± 2.8% at STAP1 (primary screen, 10 μM); 74.1 ± 2.1% at TNS2 (primary screen, 10 μM). Further, the “percent of DMSO vehicle control” value at GRB2 is recorded as 103.7%.
For the molecule `NC(=O)CC[C@H](NC(=O)[C@@H]1CC[C@@H]2CCN(C(=O)CCCCCC#Cc3cccc4c3CN(C3CCC(=O)NC3=O)C4=O)C[C@H](NC(=O)c3cc4cc(C(F)(F)P(=O)(O)O)ccc4[nH]3)C(=O)N21)C(=O)NC(c1ccccc1)c1ccccc1` (stereo partly shown) [SD-36], on STAP2, the percent of DMSO vehicle control at 10 µM was found to be 36.1 ± 5.4%. For the same molecule, the remaining activity at 10 µM is 100 ± 4.5% at SHC4, 79.9 ± 5.8% on STAP1 and 65.4 ± 3.3% on TNS2. Also, the “percent of DMSO vehicle control” value on GRB2 was 92.9±1.6%.
For `CC(=O)N1CC[C@H]2CC[C@@H](C(=O)N[C@@H](CCC(N)=O)C(=O)NC(c3ccccc3)c3ccccc3)N2C(=O)[C@@H](NC(=O)c2cc3cc(C(F)(F)P(=O)(O)O)ccc3[nH]2)C1` [SI-109] the same measures were 130%, 136%, 104%, 126% and 104.9%.
As for `C/C(=C\C(=O)N[C@H](C(=O)N1CCC[C@H]1C(=O)N(c1ccccc1)c1ccc(I)cc1)C(C)(C)C)c1ccc(OP(=O)(O)O)cc1` [STAT6-IN-1], the Kd worked out at 16.3 µM at STAP2 (dose-response, read-out: KD) and 6.04 ± 1.4 µM at GRB2 (dose-response, read-out: KD). Also, the remaining activity at 10 µM stood at 58.4 ± 51.4% on STAP2 (primary screen, 10 μM); 77.1 ± 7.5% on SHC4 (primary screen, 10 μM); 65.6 ± 5.1% at STAP1 (primary screen, 10 μM); 55.9 ± 0.4% at TNS2 (primary screen, 10 μM).
As to `CC(C)(C)[C@H](NC(=O)/C=C/c1ccc(OP(=O)(O)O)cc1)C(=O)N1CCC[C@H]1C(=O)N(c1ccccc1)c1ccc(I)cc1` [STAT6-IN-3], the remaining activity at 10 µM came to 56.9 ± 15.1% on STAP2 (primary screen, 10 μM); 90.2 ± 12% at SHC4 (primary screen, 10 μM); 76.9 ± 9.2% on STAP1 (primary screen, 10 μM); 86.8 ± 7.1% at TNS2 (primary screen, 10 μM). The “percent of DMSO vehicle control” value at GRB2 was 72.4±21.8%.
For `O=C(COc1ccc2cc(C(=O)Nc3ccccc3)ccc2c1)NCc1ccc(OP(=O)(O)O)c(OP(=O)(O)O)c1` [Stafib-1] the same measures were 78.7 ± 36.1%, 103%, 92 ± 6.8%, 86 ± 8.8% and 79.5±8.8%.
